Measurements from patent publication US8133729B2, “Biomimetic urothelium” (The University of York, priority 2002, dated 2012).
“Also recorded” adds a separate entry of the source.

Tests used:
[1] = target: T1, amiloride-sensitive sodium channels (Homo sapiens, UniProt P37088+P51168+P51170); test: Polarised sodium ion channel distribution: short circuit current and transepithelial potential difference on amiloride exposure; assay type: cell-based
T1 construct: The exposure of the apical surface of the urothelial tissue to amiloride reduced both the voltage and the current; endogenous in cells; host or cells: in vitro cultured, differentiated human urothelial cell sheet
Method: (§1) Polarised Sodium Ion Channel Distribution. In order to determine the presence and correct spatial location of sodium ion channels, short circuit current and transepithelial potential difference were measured under voltage and current clamped conditions respectively.

Na^+—K^+ ATPase = test: Short circuit current and transepithelial potential difference on ouabain exposure; assay type: cell-based, human
Method: as §1

[2] = exposure of basal surface of in vitro cultivated urothelium
[3] = exposure of apical surface of in vitro cultivated urothelium

T1 sequence (P51170 whole entry): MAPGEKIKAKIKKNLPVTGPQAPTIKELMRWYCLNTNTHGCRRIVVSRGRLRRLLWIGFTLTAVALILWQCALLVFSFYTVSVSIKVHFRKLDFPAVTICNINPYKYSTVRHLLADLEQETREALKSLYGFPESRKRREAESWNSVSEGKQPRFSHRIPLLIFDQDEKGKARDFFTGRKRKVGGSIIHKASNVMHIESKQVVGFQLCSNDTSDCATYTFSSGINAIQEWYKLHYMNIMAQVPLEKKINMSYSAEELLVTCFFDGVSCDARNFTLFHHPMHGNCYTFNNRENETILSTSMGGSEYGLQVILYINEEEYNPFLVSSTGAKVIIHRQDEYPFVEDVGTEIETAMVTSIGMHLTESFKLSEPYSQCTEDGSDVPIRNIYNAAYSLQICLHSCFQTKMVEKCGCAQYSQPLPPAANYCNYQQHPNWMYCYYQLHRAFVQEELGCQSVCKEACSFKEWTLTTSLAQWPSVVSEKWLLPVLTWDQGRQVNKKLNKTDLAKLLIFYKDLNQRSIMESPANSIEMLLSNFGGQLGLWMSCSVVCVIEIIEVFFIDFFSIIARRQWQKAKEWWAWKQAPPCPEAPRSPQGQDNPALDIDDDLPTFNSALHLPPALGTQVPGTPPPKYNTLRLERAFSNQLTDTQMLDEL
T1 sequence (P37088 whole entry): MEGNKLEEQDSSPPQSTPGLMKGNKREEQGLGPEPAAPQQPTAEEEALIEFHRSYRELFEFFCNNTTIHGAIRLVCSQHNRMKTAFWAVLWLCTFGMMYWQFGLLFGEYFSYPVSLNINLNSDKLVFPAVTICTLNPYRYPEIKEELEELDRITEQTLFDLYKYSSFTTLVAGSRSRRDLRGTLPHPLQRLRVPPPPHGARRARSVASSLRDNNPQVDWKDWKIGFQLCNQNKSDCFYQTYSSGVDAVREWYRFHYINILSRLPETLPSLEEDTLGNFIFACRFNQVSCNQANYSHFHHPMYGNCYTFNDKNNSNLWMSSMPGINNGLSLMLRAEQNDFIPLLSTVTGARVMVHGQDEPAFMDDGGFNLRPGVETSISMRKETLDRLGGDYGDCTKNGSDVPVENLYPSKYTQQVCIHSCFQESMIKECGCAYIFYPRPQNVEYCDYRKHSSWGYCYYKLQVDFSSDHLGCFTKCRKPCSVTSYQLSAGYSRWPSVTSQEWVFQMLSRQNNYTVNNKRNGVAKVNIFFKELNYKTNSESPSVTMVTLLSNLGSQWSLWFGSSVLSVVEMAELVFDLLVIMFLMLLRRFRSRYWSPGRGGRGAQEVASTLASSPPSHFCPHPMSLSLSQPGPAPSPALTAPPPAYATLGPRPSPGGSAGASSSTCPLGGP
T1 sequence (P51168 whole entry): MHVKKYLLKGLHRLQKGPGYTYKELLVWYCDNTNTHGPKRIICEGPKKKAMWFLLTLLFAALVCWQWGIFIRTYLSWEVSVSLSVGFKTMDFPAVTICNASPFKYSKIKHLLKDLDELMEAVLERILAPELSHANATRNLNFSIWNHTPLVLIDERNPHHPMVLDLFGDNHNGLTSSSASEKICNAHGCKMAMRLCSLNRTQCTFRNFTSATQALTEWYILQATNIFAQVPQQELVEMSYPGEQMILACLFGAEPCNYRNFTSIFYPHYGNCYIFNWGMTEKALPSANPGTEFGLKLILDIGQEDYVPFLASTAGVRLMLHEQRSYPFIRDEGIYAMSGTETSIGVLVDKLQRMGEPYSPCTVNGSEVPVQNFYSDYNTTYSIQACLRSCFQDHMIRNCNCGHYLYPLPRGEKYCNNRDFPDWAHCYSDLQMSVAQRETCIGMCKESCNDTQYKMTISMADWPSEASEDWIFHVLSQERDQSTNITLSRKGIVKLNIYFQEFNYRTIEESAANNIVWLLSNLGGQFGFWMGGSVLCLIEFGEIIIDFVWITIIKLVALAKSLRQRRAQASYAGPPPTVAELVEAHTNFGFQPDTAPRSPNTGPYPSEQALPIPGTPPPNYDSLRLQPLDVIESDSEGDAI

Compound	effect on transepithelial potential difference (voltage) ([1]; exposure of apical surface of in vitro cultivated urothelium, current clamped)	effect on short circuit current ([1]; exposure of apical surface of in vitro cultivated urothelium, voltage clamped)	effect on short circuit current [1, 2]	effect on transepithelial potential difference (voltage) [1, 2]	effect on short circuit current (Na^+—K^+ ATPase; [3])	effect on transepithelial potential difference (voltage) (Na^+—K^+ ATPase; [3])	effect on short circuit current (Na^+—K^+ ATPase; [2])	effect on transepithelial potential difference (voltage) (Na^+—K^+ ATPase; [2])
N=C(N)NC(=O)c1nc(Cl)c(N)nc1N [amiloride]	reduced both the voltage and the current in a dose-dependent manner	dose-responsive decrease in short circuit current; also recorded: reduced both the voltage and the current in a dose-dependent manner	did not affect either the voltage or the current	did not affect either the voltage or the current				
C[C@@H]1O[C@@H](O[C@H]2C[C@@H](O)[C@]3(CO)[C@H]4[C@H](O)C[C@]5(C)[C@@H](C6=CC(=O)OC6)CC[C@]5(O)[C@@H]4CC[C@]3(O)C2)[C@H](O)[C@H](O)[C@H]1O [ouabain]					only a minor effect on the measured voltage and current	only a minor effect on the measured voltage and current	marked reduction of both voltage and current	marked reduction of both voltage and current
